Data reported in patent publication US6121241A, “Anticoagulant peptide aldehyde derivatives” (Gyogyszerkutato Intezet Kft., priority 1996, dated 2000).
Read-outs that look alike come from different tables or passages of the source.

Experiments:
[1] = tested on: citrate plasma coagulation (APTT); test: Activated partial thromboplastin time (APTT) plasma clotting test; type: biochemical
Experimental: (§1) Anticoagutant activity (i.e. inhibition of the proteolytic reactions in the process) is measured by anticoagulant tests, e.g. by the thrombin time (TT), activated partial thromboplastin time (APTT) and prothrombin time (PT) tests [E. J. W. Bovie et al; Mayo Clinic Laboratory Manual of Hemostasis; W. B. Sanuders Co., Philadelphia (1971)]. Plasma, inhibited in spontaneous coagulation, e.g. citrate-plasma, is made to coagulate and the required coagulation time is measured. Upon the action of anticoagulants the coagulation time is prolonged proportionally to the inhibition of the reaction(s) in the process. The anticoagulant effect can be characterized by the substance concentration required to double the coagulation time compared to the control (IC50). The effect of anticoagulants on individual coagulant proteases is measured by the amidolytic method [R. Lottenberg et al., Methods in Enzymol. 80, 341 (1981); G. Cleason, Blood Coagulation and Fibrinolysis 5, 411 (1994)]. The isolated active factor (e.g. thrombin, fXa) and its chromogen or fluorogen peptide-amide substrate are reacted in the presence or absence of the inhibitor, resp. The enzyme inhibiting action is characterized by the inhibitory constant (IC50) measured during amidolysis.
(§2) In the TT test coagulation is initiated by the thrombin added to the citrate plasma. In the system 22 pmol/mL of thrombin is functioning and in the presence of plasma components its inhibition can be measured on the fibrinogen (one of the natural substrates of thrombin) present In the APTT and PT tests the full coagulation process is made to proceed. Depending on the activator fX is activated by the extrinsic or intrinsic pathway. The generated fXa activates prothrombin to thrombin which, in turn, triggers plasma coagulation. In the test the coagulation time is prolonged if the enzymes or one of them is inhibited by the inhibitor. In the APTT and PT tests at most 40 pmole/ml Xa is generated (this is the full amount of factor X present in both systems) while 150 pmole/ml (APTT) and 350 pmole/ml (PT) are generated from thrombin [B Kaiser et al., Thromb. Res. 65, 157 (1992)].
(§3) The in vitro anticoagulant effect of the compounds of general formula (I) was measured by the prothrombin time (PT), activated partial thromboplastin time (APTT) and thrombin time (TT) tests [D. Bagdy et at., Thromb. Haemost. 67, 325 (1992)]. The Xa-factor-inhibiting effect of the compounds was also determined by using the Bz-Ile-Glu-Gly-Arg-pNA chromogen substrate (see method M6).

[2] = tested on: whole blood clotting time (WBCT); test: Ex vivo whole blood clotting time (WBCT) in rabbits after p.o. dosing; set-up: species or system New Zealand white rabbits; conditions: p.o. 5 mg/kg
Experimental: (§4) The anticoagulant and platelet aggregation inhibiting effect of the compounds of general formula (I) was studied In New Zealand white rabbits ex vivo according to D. Bagdy et al [Thromb. Haemost 67. 357 (1992). The compounds were dissolved in buffered isotonic saline solution and administered i.v. (0,04-5.0 mg/kg) or by infusion (0.25-5.0 mg/kg/h) or subcutaneously (0.5-6.0 mg/kg) or p.o. (2.5-20 mg/kg). The effect of the compounds was detectable already within 30 minutes following p.o. administration, peak values were attained after 60-180 minutes and the therapeutic level was maintained dose-dependently for 3→6 hours.
(§5) The in vivo effect of D-cHga Pro-Arg-H (1) is presented in detail in Tables 5 and 6. The corresponding values of C1 are listed as controls. The compound was administered p.o. in doses of 5 mg/kg. The blood samples drawn from the caudal vein in every 30-60 minutes were analyzed. The whole blood clotting time (WBCT) and the inhibition of thrombin-induced blood platelet aggregation (PAI) were determined. The activated partial thromboplastin time (APTT) and the thrombin time (TT) in the citrate plasma obtained from the blood sample were also measured. The APTT and TT values are compiled in Table 5 and the WBCT and PAI values in Table 6.

[3] = tested on: thrombin time (TT); test: Ex vivo TT in citrate plasma of rabbits after p.o. dosing; set-up: species or system New Zealand white rabbits; conditions: p.o. 5 mg/kg
Experimental: as §4, §5

[4] = biological target: T1, thrombin (Homo sapiens, UniProt P00734); test: Thrombin time (TT) plasma clotting test; type: biochemical
T1 construct: The isolated active factor (e.g. thrombin, fXa) and its chromogen or fluorogen peptide-amide substrate are reacted
Experimental: as §1, §2, §3

[5] = Table 2, concentration doubling clotting time, read-out: A: IC50, TT

| SMILES | WBCT relative clotting time ([2]; 0 min) | WBCT relative clotting time ([2]; 30 min) | WBCT relative clotting time ([2]; 45 min) | WBCT relative clotting time ([2]; 60 min) | WBCT relative clotting time ([2]; 90 min) | WBCT relative clotting time ([2]; 120 min) | WBCT relative clotting time ([2]; 180 min) | WBCT relative clotting time ([2]; 240 min) | TT relative clotting time ([3]; 0 min) | TT relative clotting time ([3]; 30 min) | TT relative clotting time ([3]; 45 min) | TT relative clotting time ([3]; 60 min) | TT relative clotting time ([3]; 90 min) | TT relative clotting time ([3]; 120 min) | TT relative clotting time ([3]; 180 min) | TT relative clotting time ([3]; 240 min) | IC50 [4, 5] | also measured |
| --- | --- | --- | --- | --- | --- | --- | --- | --- | --- | --- | --- | --- | --- | --- | --- | --- | --- | --- |
| N=C(N)NCCC[C@@H](C=O)NC(=O)[C@H]1CCCN1C(=O)C(O)C1CCCCCC1.N=C(N)NCCC[C@@H](C=O)NC(=O)[C@H]1CCCN1C(=O)C(O)C1CCCCCC1.O=S(=O)(O)O (stereo partly drawn) [Compound 1, D-2-Cycloheptyl-2-hydroxyacetyl-L-prolyl-L-arginine aldehyde hemisulfate] | 1.0 | 1.80 ± 0.36 | 2.03 ± 0.35 | 1.98 ± 0.30 | 1.78 ± 0.26 | 1.52 ± 0.13 | 1.29 ± 0.07 | 1.13 ± 0.04 | 1.0 | 10.57 ± 5.98 | 10.89 ± 5.89 | 11.67 ± 5.69 | 14.00 ± 6.48 | 10.60 ± 4.22 | 2.22 ± 0.71 | 1.23 ± 0.07 | 110 nM | IC50 ([1]; Table 2, concentration doubling clotting time, read-out: A: IC50, APTT): 370 nM; TT relative clotting time ([3]; 300 min): 1.13 ± 0.05 |
| CN[C@H](Cc1ccccc1)C(=O)N1CCC[C@H]1C(=O)N[C@H](C=O)CCCNC(=N)N [Compound C1, D-MePhe-Pro-Arg-H] | 1.0 | 1.07 ± 0.13 | 1.26 ± 0.07 | 1.55 ± 0.17 | 1.61 ± 0.34 | 1.45 ± 0.21 | 1.44 ± 0.08 | 1.22 ± 0.08 | 1.0 | 1.52 ± 0.17 | 2.50 ± 0.44 | 4.75 ± 1.38 | 10.50 ± 5.49 | 5.51 ± 3.59 | 2.05 ± 0.38 | 1.81 ± 0.39 | 90 nM | IC50 ([1]; read-out: concentration doubling the clotting time in the APTT test): 622 nM; IC50 ([4]; Table 1, concentration doubling clotting time, read-out: B: IC50, TT): 90 nM; IC50 ([4]; read-out: concentration doubling the clotting time in the TT test): 87 nM |
